SMILES strings stand for the structures. Values joined by “and” are separate entries in the source; they are usually repeats but may differ in a detail not shown here. Equal entries are not always repeated.

For this assay, the target named is T1, Recombinant human TPH1 (MBP tagged) (Homo sapiens, UniProt P17752).
T1 construct: cloning full length human TPH1 cDNA in to a bacterial pMAL-c5E expression vector; made in house; host or cells: E. coli BL21 (DE3)
T1 sequence (P17752 1-444): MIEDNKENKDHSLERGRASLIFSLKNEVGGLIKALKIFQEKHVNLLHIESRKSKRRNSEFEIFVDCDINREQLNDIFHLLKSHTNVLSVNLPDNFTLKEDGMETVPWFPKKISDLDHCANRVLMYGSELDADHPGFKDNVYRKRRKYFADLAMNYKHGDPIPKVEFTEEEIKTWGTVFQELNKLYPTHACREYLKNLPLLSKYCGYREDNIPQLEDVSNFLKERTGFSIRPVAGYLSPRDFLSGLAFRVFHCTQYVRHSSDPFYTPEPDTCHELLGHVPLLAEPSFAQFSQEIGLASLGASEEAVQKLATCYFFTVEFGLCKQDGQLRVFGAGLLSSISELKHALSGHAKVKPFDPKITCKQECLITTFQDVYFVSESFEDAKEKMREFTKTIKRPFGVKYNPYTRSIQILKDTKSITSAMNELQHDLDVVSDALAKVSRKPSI
Description: TPH1 in vitro inhibition assay (kinetic fluorescence). Type of assay: biochemical. To be noted: read-out: TPH1 Range (TPH1 inhibition IC50). An excerpt: Recombinant human TPH1 (rTPH1 GenBank™ accession no. NP_004179) was expressed by cloning full length human TPH1 cDNA in to a bacterial pMAL-c5E expression vector to produce maltose-binding protein (MBP) TPH1 fusion proteins. E. coli BL21 (DE3) containing pMAL-c5E-TPH1 was used for protein generation and the recombinant protein was purified utilizing standard column chromatography techniques. The MBP tagged TPH1 (MBP-TPH1) was used directly to screen compounds as described below. Recombinant human TPH2 (rTPH2 GenBank™ accession no. 173353), PheOH (rPheOH GenBank™ accession no. K03020) and TH (rTH GenBank™ accession no. L20679) with an MBP tag were produced similarly.
TPH1 activities were measured in an assay containing 200 mM ammonium sulfate, 7 mM DTT, 50 μg/mL catalase, 25 μM ammonium iron sulfate, 50 mM MES, pH 7.1. Test compounds were diluted in 100% DMSO and added to the assay plate in 1 μL aliquots at 100× final concentration. Fifty microliters of assay buffer containing 30 nM TPH1 enzyme (MBP tagged) were added to the plate wells containing the test compound by the use of an Eppendorf repeater pipette. The reaction was initiated by the addition of 50 μL of assay buffer containing 60 μM tryptophan and 72 μM 6-6-methyltetra-hydropterin (2× final concentration) by the use of a Multidrop (LabSystems). Final reaction conditions were 15 nM TPH1 enzyme, 30 μM tryptophan, 36 μM 6-methyltetra-hydropterin, 200 mM ammonium sulfate, 7 mM DTT, […], 25 μM ferrous ammonium sulfate, 50 mM MES, pH 7.1, with atmospheric oxygen at room temperature. The plate was immediately placed onto an M5 plate reader (Molecular Devices) for kinetic fluorescence measurement using an excitation setting of 300 nm and an emission setting of 335 nm. Fluorescence reads are recorded in kinetic mode for 300 seconds (5 minutes).
Kinetic assay data for compounds at specific concentrations was translated into slopes using the Softmax Pro software on a Spectramax reader, and compound inhibition slopes were compared with wells containing enzyme, substrate and cofactor in the absence of inhibitor (100%), and wells containing substrate and cofactor in the absence of enzyme (0%). DMSO concentration in the assay was 1%. […] IC50's were determined using Graphpad Prism.
As a reminder, the IC50 is the concentration that gives 50% inhibition. In the case of `Cc1ccn(-c2cc(-c3cccc(OC(F)(F)F)c3)ccc2[C@@H](Oc2cc(N3CCC4(CC3)CN[C@H](C(=O)O)C4)nc(N)n2)C(F)(F)F)n1` [Example 1as, (S)-8-(2-amino-6-((R)-2,2,2-trifluoro-1-(3-(3-methyl-1H-pyrazol-1-yl)-3'-(trifluoromethoxy)-[1,1′-biphenyl]-4-yl)ethoxy)pyrimidin-4-yl)-2,8-diazaspiro[4.5]decane-3-carboxylic acid], the 50% inhibitory concentration (IC50) is less than 50 nM.

Turning to `Cc1cc(C)cc(-c2ccc([C@@H](Oc3cc(N4CCC5(CC4)CN[C@H](C(=O)O)C5)nc(N)n3)C(F)(F)F)c(-n3ccc(C)n3)c2)c1` [Example 1at, (S)-8-(2-amino-6-((R)-1-(3′,5′-dimethyl-3-(3-methyl-1H-pyrazol-1-yl)-[1,1′-biphenyl]-4-yl)-2,2,2-trifluoroethoxy)pyrimidin-4-yl)-2,8-diazaspiro[4.5]decane-3-carboxylic acid], the IC50 is less than 50 nM.

On to `Cc1ccn(-c2cc(-c3ccc(F)c(F)c3)ccc2[C@@H](Oc2cc(N3CCC4(CC3)CN[C@H](C(=O)O)C4)nc(N)n2)C(F)(F)F)n1` [Example 1au, (S)-8-(2-amino-6-((R)-1-(3′,4′-difluoro-3-(3-methyl-1H-pyrazol-1-yl)-[1,1′-biphenyl]-4-yl)-2,2,2-trifluoroethoxy)pyrimidin-4-yl)-2,8-diazaspiro[4.5]decane-3-carboxylic acid], for which the IC50 is 50 to 300 nM.

`Cc1ccn(-c2cc(-c3ccc(F)c(C(F)(F)F)c3)ccc2[C@@H](Oc2cc(N3CCC4(CC3)CN[C@H](C(=O)O)C4)nc(N)n2)C(F)(F)F)n1` [Example 1aw, (S)-8-(2-amino-6-((R)-2,2,2-trifluoro-1-(4′-fluoro-3-(3-methyl-1H-pyrazol-1-yl)-3′-(trifluoromethyl)-[1,1′-biphenyl]-4-yl)ethoxy)pyrimidin-4-yl)-2,8-diazaspiro[4.5]decane-3-carboxylic acid]: the IC50 fell in the range of 50 to 300 nM.

As for `Cc1ccn(-c2cc(-c3ccc(OC(C)C)c(F)c3)ccc2[C@@H](Oc2cc(N3CCC4(CC3)CN[C@H](C(=O)O)C4)nc(N)n2)C(F)(F)F)n1` [Example 1ax, (S)-8-(2-amino-6-((R)-2,2,2-trifluoro-1-(3′-fluoro-4′-isopropoxy-3-(3-methyl-1H-pyrazol-1-yl)-[1,1′-biphenyl]-4-yl)ethoxy)pyrimidin-4-yl)-2,8-diazaspiro[4.5]decane-3-carboxylic acid], the IC50 was less than 50 nM.

Take `CCOc1cc(F)cc(-c2ccc([C@@H](Oc3cc(N4CCC5(CC4)CN[C@H](C(=O)O)C5)nc(N)n3)C(F)(F)F)c(-n3ccc(C)n3)c2)c1` [Example 1ay, (S)-8-(2-amino-6-((R)-1-(3′-ethoxy-5′-fluoro-3-(3-methyl-1H-pyrazol-1-yl)-[1,1′-biphenyl]-4-yl)-2,2,2-trifluoroethoxy)pyrimidin-4-yl)-2,8-diazaspiro[4.5]decane-3-carboxylic acid]: the IC50 was < 50 nM and 50 to 300 nM.

On to `Cc1ccn(-c2cc(-c3cccc(C(C)(C)C)c3)ccc2[C@@H](Oc2cc(N3CCC4(CC3)CN[C@H](C(=O)O)C4)nc(N)n2)C(F)(F)F)n1` [Example 1az, (S)-8-(2-amino-6-((R)-1-(3′-(tert-butyl)-3-(3-methyl-1H-pyrazol-1-yl)-[1,1′-biphenyl]-4-yl)-2,2,2-trifluoroethoxy)pyrimidin-4-yl)-2,8-diazaspiro[4.5]decane-3-carboxylic acid], for which the IC50 was 50 to 300 nM.

Regarding `CSc1ccc(-c2ccc([C@@H](Oc3cc(N4CCC5(CC4)CN[C@H](C(=O)O)C5)nc(N)n3)C(F)(F)F)c(-n3ccc(C)n3)c2)cc1` [Example 1b, (S)-8-(2-amino-6-((R)-2,2,2-trifluoro-1-(3-(3-methyl-1H-pyrazol-1-yl)-4′-(methylthio)-[1,1′-biphenyl]-4-yl)ethoxy)pyrimidin-4-yl)-2,8-diazaspiro[4.5]decane-3-carboxylic acid], the IC50 was less than 50 nM.

Consider `Cc1ccn(-c2cc(-c3ccc(F)c(C)c3)ccc2[C@@H](Oc2cc(N3CCC4(CC3)CN[C@H](C(=O)O)C4)nc(N)n2)C(F)(F)F)n1` [Example 1ba, (S)-8-(2-amino-6-((R)-2,2,2-trifluoro-1-(4′-fluoro-3′-methyl-3-(3-methyl-1H-pyrazol-1-yl)-[1,1′-biphenyl]-4-yl)ethoxy)pyrimidin-4-yl)-2,8-diazaspiro[4.5]decane-3-carboxylic acid], for which the IC50 is less than 50 nM.

As to `Cc1ccn(-c2cc(-c3cccc(C(C)C)c3)ccc2[C@@H](Oc2cc(N3CCC4(CC3)CN[C@H](C(=O)O)C4)nc(N)n2)C(F)(F)F)n1` [Example 1bb, (S)-8-(2-amino-6-((R)-2,2,2-trifluoro-1-(3′-isopropyl-3-(3-methyl-1H-pyrazol-1-yl)-[1,1′-biphenyl]-4-yl)ethoxy)pyrimidin-4-yl)-2,8-diazaspiro[4.5]decane-3-carboxylic acid], the IC50 was less than 50 nM.

Consider `Cc1ccn(-c2cc(-c3cccc(OC(C)C)c3)ccc2[C@@H](Oc2cc(N3CCC4(CC3)CN[C@H](C(=O)O)C4)nc(N)n2)C(F)(F)F)n1` [Example 1bc, (S)-8-(2-amino-6-((R)-2,2,2-trifluoro-1-(3′-isopropoxy-3-(3-methyl-1H-pyrazol-1-yl)-[1,1′-biphenyl]-4-yl)ethoxy)pyrimidin-4-yl)-2,8-diazaspiro[4.5]decane-3-carboxylic acid], for which the IC50 was less than 50 nM.

As for `Cc1ccn(-c2cc(-c3ccc(Cl)c(C)c3)ccc2[C@@H](Oc2cc(N3CCC4(CC3)CN[C@H](C(=O)O)C4)nc(N)n2)C(F)(F)F)n1` [Example 1bd, (S)-8-(2-amino-6-((R)-1-(4′-chloro-3′-methyl-3-(3-methyl-1H-pyrazol-1-yl)-[1,1′-biphenyl]-4-yl)-2,2,2-trifluoroethoxy)pyrimidin-4-yl)-2,8-diazaspiro[4.5]decane-3-carboxylic acid], the IC50 was less than 50 nM.

In the case of `Cc1ccn(-c2cc(-c3cccc(C(N)=O)c3)ccc2[C@@H](Oc2cc(N3CCC4(CC3)CN[C@H](C(=O)O)C4)nc(N)n2)C(F)(F)F)n1` [Example 1be, (S)-8-(2-amino-6-((R)-1-(3′-carbamoyl-3-(3-methyl-1H-pyrazol-1-yl)-[1,1′-biphenyl]-4-yl)-2,2,2-trifluoroethoxy)pyrimidin-4-yl)-2,8-diazaspiro[4.5]decane-3-carboxylic acid], the IC50 lay in the range of 50 to 300 nM.

Consider `Cc1ccn(-c2cc(-c3cc(C(F)(F)F)cc(C(F)(F)F)c3)ccc2[C@@H](Oc2cc(N3CCC4(CC3)CN[C@H](C(=O)O)C4)nc(N)n2)C(F)(F)F)n1` [Example 1bf, (S)-8-(2-amino-6-((R)-2,2,2-trifluoro-1-(3-(3-methyl-1H-pyrazol-1-yl)-3′,5′-bis(trifluoromethyl)-[1,1′-biphenyl]-4-yl)ethoxy)pyrimidin-4-yl)-2,8-diazaspiro[4.5]decane-3-carboxylic acid], for which the IC50 was 50 to 300 nM.

For the molecule `CCOc1cc(-c2ccc([C@@H](Oc3cc(N4CCC5(CC4)CN[C@H](C(=O)O)C5)nc(N)n3)C(F)(F)F)c(-n3ccc(C)n3)c2)ccc1F` [Example 1bg, (S)-8-(2-amino-6-((R)-1-(3′-ethoxy-4′-fluoro-3-(3-methyl-1H-pyrazol-1-yl)-[1,1′-biphenyl]-4-yl)-2,2,2-trifluoroethoxy)pyrimidin-4-yl)-2,8-diazaspiro[4.5]decane-3-carboxylic acid], the IC50 is less than 50 nM.

Consider `Cc1ccn(-c2cc(-c3cc(C)c(Cl)c(C)c3)ccc2[C@@H](Oc2cc(N3CCC4(CC3)CN[C@H](C(=O)O)C4)nc(N)n2)C(F)(F)F)n1` [Example 1bh, (S)-8-(2-amino-6-((R)-1-(4′-chloro-3′,5′-dimethyl-3-(3-methyl-1H-pyrazol-1-yl)-[1,1′-biphenyl]-4-yl)-2,2,2-trifluoroethoxy)pyrimidin-4-yl)-2,8-diazaspiro[4.5]decane-3-carboxylic acid], for which the IC50 was less than 50 nM.

The values are drawn from US11759462B2, “Spirocyclic compounds as tryptophan hydroxylase inhibitors” (priority 2013, dated 2023).
